Measured values published in patent US7338778B2, “Luminescent method for determining cell oxygen consumption” (Becton, Dickinson and Company, priority 1991, dated 2008).
Converted amounts (≈) assume the structure as drawn.

Tests used:
[1] = system: E. coli (ATCC #25922); assay: Effect of antibiotics on oxygen consumption of E. coli, DPA indicator tray (Example 10); type: cell-based; conditions: for susceptibility of E. coli by fluorescence counts: 4 hours; for Relative Fluorescence at 4 hrs.: 1×10^7 CFU/ml, 37° C.
[2] = system: E. coli (ATCC #25922); assay: Effect of antibiotics on E. coli, Ru(DPP)3Cl2 indicator tray (Example 8); type: cell-based; conditions: for susceptibility of E. coli by fluorescence counts: 4 hours; for Relative Fluorescence at 4 hrs.: 1×10^7 CFU/ml, 37° C.
Description: (§1) A 0.5 McFarland suspension of E. coli (ATCC #25922) in Broth A (see Example 1) was prepared using an A-Just nephelometer. […] The trays were incubated at 37° C. for 4 hours and their fluorescence measured in a Fluoroskan II fluorometer.
The fluorescent compound tris 4,7-diphenyl-1,10-phenanthroline ruthenium (II) chloride (Ru(DPP)3Cl2) was synthesized using the procedure of Watts and Crosby (J. Am.Chem. Soc. 93, 3184(1971)). A total of 3.6 mg of the compound was dissolved in 2.0 ml dimethyl sulfoxide (D-5879, Sigma Chemical, St. Louis, Mo.) and the resultant solution was then added slowly, with stirring, to 1300 ml silicone rubber forming solution (Water Based Emulsion #3-5024, Dow Corning, Midland, Mich.). A 35 microliter aliquot of the mixture was subsequently dispensed into each well of a 96 well, flat bottom, white microtiter tray (#011-010-7901, Dynatech, Chantilly, Va.), and the system was subsequently cured overnight in a low humidity (less than 25% RH), 60° C. incubator. After curing, the trays were washed by either soaking or by filling and emptying each well several times with each of the following reagents; a) absolute ethanol, b) 0.1 M phosphate buffer pH 7.2, c) hot distilled water (about 45° C.) and d) ambient temperature distilled water.

[3] = system: E. coli (ATCC #25922); assay: Effect of antibiotics on oxygen consumption of E. coli, Ru(BiPy)3Cl2 indicator tray (Example 9); type: cell-based; conditions: for susceptibility of E. coli by fluorescence counts: 4 hours; for Relative Fluorescence at 4 hrs.: 1×10^7 CFU/ml, 37° C.
Description: A 96 well Microtiter tray was produced essentially as in Example 1, except that tris-(2,2′ bipyridyl)-ruthenium (II) chloride hexahydrate (Aldrich Chemical Company, Milwaukee, Wis.) [Ru(BiPy)3Cl2] was substituted for Ru(DPP)3Cl2 in the silicone mixture. A second tray containing 9,10-diphenyl anthracene (DPA) was also prepared. All wells were charged with 150 ul of 1×10^7 CFU/ml E. coli (ATCC #25922) in broth. Table 3 lists the results at 0, 1, 2, 3, and 4 hours after addition of organisms.
as §1

[4] = system: Ps. aeruginosa (BDMS Culture collection #N111); assay: Visual reading of indicator tray fluorescence without a fluorometer (Example 13); type: cell-based; conditions: 1×10^7 CFU/ml, 4 hours at 37° C., UV transilluminator
Description: (§2) The trays were incubated for 4 hours at 37° C. and subsequently placed on the stage of an ultraviolet transilluminator (#TX-365A, Spectronics Corp., Westbury, N.Y.) which served as an excitation source.

[5] = system: E. coli (ATCC #25922); assay: as above; type: cell-based; conditions: E. coli #25922, 1×10^7 CFU/ml, 4 hours at 37° C., UV transilluminator
Description: as §2

[6] = system: Ps. aeruginosa (BDMS Culture collection #N111); assay: Overnight microdilution antimicrobial susceptibility test (reference MIC); type: cell-based; conditions: Pseudomonas aeruginosa
[7] = system: E. coli (ATCC #25922); assay: as above; type: cell-based; conditions: Escherichia coli, ATCC25922; E. coli #25922, overnight microdilution
[8] = system: HL60 cells; assay: Cytotoxicity assay by MTT; type: cell-based; conditions: Homo sapiens, read-out: IC50 MTT
Description: In parallel with the oxygen sensor assays, MTT assays were performed using a Cell Titer Kit™ (Promega), as in Example 20, with the following exceptions. For each time point (corresponding to oxygen sensor assay time point), one flat-bottom 96 well microtiter plate (Falcon) was used. 50 uL of drug dilution in tissue culture media was used for initial reading and cells were suspended in 50 uL media, to the final volume of 100 uL. At indicated time points, 10 uL of MTT reagent was added per well for 1 hour, after which 100 uL of the stop/lysis buffer was added. Plates were sealed with Parafilm™ and cell lysis occurred overnight. Absorbance (570 nm corrected by absorbance at 750 nm) was read using a Thermomax Microplate Reader (Molecular Devices). Mean absorbance from 5 wells per data point, with standard deviation as error bars, was plotted against vinblastine concentration (FIG. 13).
These experiments was performed as described in Example 20, with the exception that appropriate dilutions of the above reagents were substituted for vinblastine: 0.01 nM to 10000 nM methotrexate, 0.00001 to 10 mM sodium azide, and 2 to 2000 uM SDS respectively.

[9] = system: HL60 cells; assay: Cytotoxicity assay in oxygen sensor plates; type: cell-based; conditions: Homo sapiens, read-out: IC50 O2 Sensor
Description: Oxygen sensor plates were prepared by the general methods described herein. Falcon 1177 polystyrene 96 well U-bottom plates (BD Labware) were used for all experiments. The fluorescent dye Ru(DPP)3Cl2 was adsorbed to silica gel by rotary evaporation of ethanolic solutions of the dye with the silica gel. The adsorbed dye-silica and a moisture-cure clear silicone were mixed manually and immediately applied to plate wells with approximately 17 uL silicone per well. These were cured for 2-3 days in a controlled humidity incubator.
All data was obtained with a BMG Polarstar fluorimeter at 37° C. using the bottom plate reading configuration. The bandpass filters were 465 nm for excitation and 590 nm for emission. For the experiments with […]®, a Cytofluor 4000 fluorometer was used with a 485 nm excitation filter and a 580 nm emission filter. Data was read at selected time intervals. Normalized fluorescence data was generally obtained by dividing well values at selected time points by the same well's initial reading with only media or buffer present prior to adding cells.
Cells used for cytotoxicity and quantitation experiments (HL60, U937; ATCC) were grown in tissue culture media recommended by the supplier (RPMI; Gibco and ATCC, respectively). The media was supplemented with either 20% fetal bovine serum (Hyclone) for the HL60 cells or 10% FBS for the U937 cells, with the addition of penicillin, streptomycin and fungizone (Gibco) to prevent microbial contamination. Cells were maintained in a tissue culture incubator (37° C., 5% CO2, 95% humidity) during all experiments between readings.
HL60 cells (human promyelocytic leukemia cell line, ATCC #45500) were grown in tissue culture media recommended by the supplier (RPMI; Gibco), supplemented with 20% fetal bovine serum, heat inactivated at 50° C. for thirty minutes with the addition of penicillin, streptomycin and fungizone (Gibco) to prevent microbial contamination. Cells were maintained in tissue culture incubator (37° C., 5% CO2, 95% humidity) during all experiments. Fluorescence of the oxygen sensor was read on a Polarstar™ fluorometer (BMG), using 465 nm excitation and 590 nm emission filters.
100 uL of tissue culture media was aliquoted into the wells of the Oxygen sensor plate and plate was allowed to equilibrate in the tissue culture incubator for 1 hour prior to taking the initial reading. This reading was used to normalize all subsequent readings to account for well to well variability. Cells were resuspended in fresh media at 960,000 cells/mi. Serial 1:2 dilution of this stock was performed and 100 uL of each dilution was alliquoted across the length of the plate in replicates of 12 (rows B-H), with final cell/well number from 1,500 to 96,000. In row A, 100 uL of tissue culture media was alliquoted into the wells in lieu of cells (no-cells control). Fluorescence measurements were taken every 24 hours over 5 days. The actual number of cells present was counted with a hemocytometer by sampling the parallel well (same seeding cell number). Mean fluorescence from 5 wells per data point (n=5) was plotted against the counted cell number (FIG. 10). Error bars are standard deviation of the mean.
The experiment was performed as described in Example 18, with the following exceptions. Serial dilutions of vinblastine were prepared at twice the final concentration (100 nM to 0.1 nM) in tissue culture media.100 uL of the drug dilution in tissue culture media was aliquoted across the width of the plate in replicates of five, reserving one column for no-drug (media only) control. After an initial reading, a constant number of cells (200,000/well) in 100 uL media were added to each well of rows A-E of the oxygen sensor plate, reserving rows F-H for no-cells control. Fluorescence was read at the indicated times. Mean fluorescence from 5 wells per data point (n=5) was plotted against vinblastine concentration (FIG. 12).

[10] = system: Pseudomonas aeruginosa (ATCC #10145); conditions: 1.5×10^8 CFU/ml, 37° C., times less than two hours
Description: A suspension containing about 3×10^8 CFU/ml, of Pseudomonas aeruginosa (ATCC #10145) in Broth A was prepared using an A-Just nephelometer. A total of 150 ul of the suspension was placed in each well of the indicator trays prepared as in Example 1; these suspensions were then diluted with solutions of phenol or copper sulfate (which are deleterious to microbial growth) to a final concentration of 1.5×10^8 CFU/ml. The trays were incubated at 37° C. and their fluorescence measured in a Fluoroskan II at 10 minute intervals.

[11] = all concentrations (0.5 to 8 ug/ml)

With `CO[C@@]1(NC(=O)Cc2cccs2)C(=O)N2C(C(=O)O)=C(COC(N)=O)CS[C@@H]21` [Cefoxitin, cefoxitin] the “susceptibility of E. coli by fluorescence counts” value (“susceptibility of E. coli” for short) ([1]; 0.5, 1, 2 ug/ml) was “resistant”, the “susceptibility of E. coli” value ([1]; 4 and 8 ug/ml) was “sensitive” and the “Relative Fluorescence at 4 hrs.” value ([1]; antibiotic 0.5 ug/mL) was 192. For the same compound, the “Relative Fluorescence at 4 hrs.” value ([1]; antibiotic 1 ug/mL) was 173, the “Relative Fluorescence at 4 hrs.” value ([1]; antibiotic 2 ug/mL) was 164 and the “Relative Fluorescence at 4 hrs.” value ([1]; antibiotic 4 ug/mL) was 101. For the same compound, the “Relative Fluorescence at 4 hrs.” value ([1]; antibiotic 8 ug/mL) was 95, the “susceptibility of E. coli” value ([2]; 0.5, 1, and 2 ug/ml) was “resistant” and the “susceptibility of E. coli” value ([2]; 4 and 8 ug/ml) was “sensitive”. The “Relative Fluorescence at 4 hrs.” value ([2]; antibiotic 0.5 ug/mL) was 8181, the “Relative Fluorescence at 4 hrs.” value ([2]; antibiotic 1 ug/mL) was 8270 and the “Relative Fluorescence at 4 hrs.” value ([2]; antibiotic 2 ug/mL) was 7120. For the same compound, the “Relative Fluorescence at 4 hrs.” value ([2]; antibiotic 4 ug/mL) was 3692, the “Relative Fluorescence at 4 hrs.” value ([2]; antibiotic 8 ug/mL) was 2974 and the “susceptibility of E. coli” value ([3]; 0.5, 1, and 2 ug/ml) was “resistant”. For the same compound, the “susceptibility of E. coli” value ([3]; 4 and 8 ug/ml) was “sensitive”, the “Relative Fluorescence at 4 hrs.” value ([3]; antibiotic 0.5 ug/mL) was 1171 and the “Relative Fluorescence at 4 hrs.” value ([3]; antibiotic 1 ug/mL) was 1491. The “Relative Fluorescence at 4 hrs.” value ([3]; antibiotic 2 ug/mL) was 1338, the “Relative Fluorescence at 4 hrs.” value ([3]; antibiotic 4 ug/mL) was 832 and the “Relative Fluorescence at 4 hrs.” value ([3]; antibiotic 8 ug/mL) was 559. For the same compound, the “MIC Visual (lowest concentration of antibiotic to significantly lower the fluorescent emissions)” value [4] was greater than 64 µg/mL, the “MIC Visual (lowest concentration of antibiotic to significantly lower the fluorescent emissions)” value [5] was 8 µg/mL and the MIC [6] was greater than 64 µg/mL. The MIC [7] was 4 µg/mL (≈ 9.36 µM).

`O=C(O)c1cn(C2CC2)c2cc(N3CCNCC3)c(F)cc2c1=O` [Ciprofloxacin, ciprofloxacin] was tested, and the “susceptibility of E. coli” value [1, 11] was “sensitive”, the “susceptibility of E. coli” value [2, 11] was “sensitive” and the “susceptibility of E. coli” value [3, 11] was “sensitive”.

`CN(Cc1cnc2nc(N)nc(N)c2n1)c1ccc(C(=O)N[C@@H](CCC(=O)O)C(=O)O)cc1` [Methotrexate, methotrexate] showed an IC50 ([8]; HL-60, HL60 cells, 120 hours) of 14 nM, an IC50 ([9]; HL-60, HL60 cells, 96 hours) of 19 nM and an IC50 ([9]; HL-60, HL60 cells, 120 hours) of 12 nM.

Work on `CCCCCCCCCCCCOS(=O)(=O)[O-].[Na+]` [SDS, Sodium Dodecyl Sulfate] yielded an IC50 ([8]; HL-60, HL60 cells, 24 hours) of 500000 nM, an IC50 ([8]; HL-60, HL60 cells, 48 hours) of 440000 nM and an IC50 ([8]; HL-60, HL60 cells, 72 hours) of 430000 nM. The IC50 ([9]; HL-60, HL60 cells, 24 hours) was 340000 nM, the IC50 ([9]; HL-60, HL60 cells, 48 hours) was 300000 nM and the IC50 ([9]; HL-60, HL60 cells, 72 hours) was 300000 nM.

In the case of `[N-]=[N+]=[N-]` [Sodium Azide, sodium azide], the IC50 ([8]; HL-60, 48 h) is reported as 25000 nM, the IC50 ([8]; HL-60, 72 h) is reported as 25000 nM and the IC50 ([8]; HL-60, 96 h) is reported as 3000 nM. For the same compound, the IC50 ([8]; HL-60, 120 h) was 1600 nM, the IC50 ([9]; HL-60, 48 h) was 13000 nM and the IC50 ([9]; HL-60, 72 h) was 13000 nM. For the same compound, the IC50 ([9]; HL-60, 96 h) was 9000 nM and the IC50 ([9]; HL-60, 120 h) was 5800 nM.

`CC[C@]1(O)C[C@@H]2CN(CCc3c([nH]c4ccccc34)[C@@](C(=O)OC)(c3cc4c(cc3OC)N(C)[C@H]3[C@@](O)(C(=O)OC)[C@H](OC(C)=O)[C@]5(CC)C=CCN6CC[C@]43[C@@H]65)C2)C1` [Vinblastine, vinblastine] gave an IC50 ([8]; HL-60, HL60 cells, 48 hours) of 9 nM, an IC50 ([8]; HL-60, HL60 cells, 72 hours) of 8 nM and an IC50 ([8]; HL-60, HL60 cells, 96 hours) of 7 nM. It also gave an IC50 ([8]; HL-60, HL60 cells, 120 hours) of 6.4 nM, an IC50 ([9]; HL-60, HL60 cells, 48 hours) of 11 nM and an IC50 ([9]; HL-60, HL60 cells, 72 hours) of 11 nM. The IC50 ([9]; HL-60, HL60 cells, 96 hours) was 9 nM and the IC50 ([9]; HL-60, HL60 cells, 120 hours) was 9 nM.

`O=S(=O)([O-])[O-].[Cu+2]` [copper sulfate] was tested, and the “concentration at which wells had no increase in fluorescence signal (absence of actively metabolizing organisms)” value [10] was “greater than 500 mg/liter”.

With `Oc1ccccc1` [phenol] the “concentration at which wells had no increase in fluorescence signal (absence of actively metabolizing organisms)” value [10] was no less than 1 gram/liter.
